Reference: patent US12037344B2, “NLRP3 modulators” (INNATE TUMOR IMMUNITY, INC., priority 2018, dated 2024)

Legend:
THP-1 cells = experiment: Measurement of IL-1β production, hTRF protocol (second alternative procedure), THP-1 cells; assay type: cell-based, human; conditions: Homo sapiens, THP-1, IL-1β production, human cells; read-out: NLRP3 hILIB EC50
Outline: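 Compounds, dilution series starting at a final 10 μM, were incubated 2 hours at 37° C with PMA-differentiated THP-1 cells (50 ng/ml overnight; 50,000 cells/well, 2% FBS RPMI). Released IL-1β quantified in supernatant by hTRF kit with 1:40 antibody dilution, 4° C overnight, 665/615 nm ratio.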

TLR7 = molecular target: T1, TLR7 (Homo sapiens, UniProt Q9NYK1); experiment: In vitro human TLR7 binding reporter assay (HEK-Blue, NF-kB/AP1-inducible SEAP); assay type: cell-based; conditions: activity range, read-out: TLR7 Agonist EC50
T1 construct: human HEK-Blue cells co-expressing a TLR7 or TLR8 gene
T1 sequence (Q9NYK1 27-1049): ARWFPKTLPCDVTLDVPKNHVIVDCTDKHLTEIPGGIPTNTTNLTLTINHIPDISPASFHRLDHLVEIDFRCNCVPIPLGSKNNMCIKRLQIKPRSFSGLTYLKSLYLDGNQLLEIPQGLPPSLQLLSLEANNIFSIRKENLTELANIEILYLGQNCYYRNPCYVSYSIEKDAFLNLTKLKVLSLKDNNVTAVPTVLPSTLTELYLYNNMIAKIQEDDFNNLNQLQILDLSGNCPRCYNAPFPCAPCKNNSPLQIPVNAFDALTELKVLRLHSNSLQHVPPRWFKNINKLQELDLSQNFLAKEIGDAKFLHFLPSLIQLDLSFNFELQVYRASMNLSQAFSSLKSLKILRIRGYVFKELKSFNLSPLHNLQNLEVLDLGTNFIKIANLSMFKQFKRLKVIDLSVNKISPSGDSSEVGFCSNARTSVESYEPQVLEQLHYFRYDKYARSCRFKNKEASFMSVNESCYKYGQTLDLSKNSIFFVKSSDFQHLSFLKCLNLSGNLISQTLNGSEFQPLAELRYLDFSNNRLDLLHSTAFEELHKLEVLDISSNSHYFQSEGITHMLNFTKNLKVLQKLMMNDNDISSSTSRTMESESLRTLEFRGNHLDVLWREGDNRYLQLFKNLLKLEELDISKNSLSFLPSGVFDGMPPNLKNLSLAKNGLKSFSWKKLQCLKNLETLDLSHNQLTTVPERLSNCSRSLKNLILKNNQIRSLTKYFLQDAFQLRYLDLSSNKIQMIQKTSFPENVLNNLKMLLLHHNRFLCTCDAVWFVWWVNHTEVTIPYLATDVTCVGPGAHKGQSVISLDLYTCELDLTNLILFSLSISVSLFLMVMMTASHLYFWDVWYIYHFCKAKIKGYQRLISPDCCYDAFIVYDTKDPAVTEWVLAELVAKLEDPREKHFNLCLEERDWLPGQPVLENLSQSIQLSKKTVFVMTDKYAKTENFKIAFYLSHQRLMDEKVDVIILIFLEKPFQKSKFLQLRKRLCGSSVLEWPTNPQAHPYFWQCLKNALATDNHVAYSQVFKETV
Outline: (§1)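 EC50s come from NF-kB/AP1-driven SEAP secretion in HEK-Blue cells expressing TLR7 or TLR8, measured with Quanti-Blue after an 18 h compound incubation. Maximal response is defined by a 50 μM reference standard.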

TLR8 = molecular target: T2, TLR8 (Homo sapiens, UniProt Q9NR97); experiment: In vitro human TLR8 binding reporter assay (HEK-Blue, NF-kB/AP1-inducible SEAP); assay type: cell-based; conditions: activity range, read-out: TLR8 Agonist EC50
T2 construct: human HEK-Blue cells co-expressing a TLR7 or TLR8 gene
T2 sequence (Q9NR97 27-1041): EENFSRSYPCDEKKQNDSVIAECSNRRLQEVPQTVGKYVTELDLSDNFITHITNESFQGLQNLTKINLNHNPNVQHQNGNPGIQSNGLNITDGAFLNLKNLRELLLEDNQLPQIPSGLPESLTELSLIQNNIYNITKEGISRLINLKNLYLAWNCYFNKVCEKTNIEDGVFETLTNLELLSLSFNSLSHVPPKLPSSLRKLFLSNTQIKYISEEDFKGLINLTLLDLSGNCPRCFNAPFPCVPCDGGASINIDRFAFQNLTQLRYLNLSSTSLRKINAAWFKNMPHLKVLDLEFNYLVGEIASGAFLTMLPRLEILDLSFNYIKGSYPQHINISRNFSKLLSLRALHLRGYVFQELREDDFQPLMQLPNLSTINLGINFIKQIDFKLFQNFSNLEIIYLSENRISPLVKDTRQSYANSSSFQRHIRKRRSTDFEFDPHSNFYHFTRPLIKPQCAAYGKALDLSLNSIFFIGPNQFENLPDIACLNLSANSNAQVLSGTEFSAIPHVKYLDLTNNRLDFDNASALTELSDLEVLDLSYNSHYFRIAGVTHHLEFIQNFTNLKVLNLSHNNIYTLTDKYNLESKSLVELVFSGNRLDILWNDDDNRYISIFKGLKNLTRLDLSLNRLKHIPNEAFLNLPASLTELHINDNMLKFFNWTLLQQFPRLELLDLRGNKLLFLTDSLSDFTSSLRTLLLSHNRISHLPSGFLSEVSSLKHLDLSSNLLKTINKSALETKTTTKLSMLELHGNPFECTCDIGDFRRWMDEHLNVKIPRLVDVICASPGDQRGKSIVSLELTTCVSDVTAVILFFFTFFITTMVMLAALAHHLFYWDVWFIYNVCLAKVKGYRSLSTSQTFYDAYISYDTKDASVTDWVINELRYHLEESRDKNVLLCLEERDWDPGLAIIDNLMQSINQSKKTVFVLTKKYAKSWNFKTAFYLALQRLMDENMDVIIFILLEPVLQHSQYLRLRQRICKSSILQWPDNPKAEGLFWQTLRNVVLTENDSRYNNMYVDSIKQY
Outline: as §1

Row | Compound | EC50 (THP-1 cells) | EC50 (TLR7) | EC50 (TLR8)
1 | N#CCn1cc2c(n1)c(N)nc1cc(-c3cc[nH]n3)ccc12 [Example 551] | 2.24 µM | > 100 µM | > 100 µM
2 | CN1CCN(C(=O)Cn2cc3c(n2)c(N)nc2cc(-c4cc[nH]n4)ccc23)CC1 [Example 552] | 9.89 µM | > 100 µM | > 100 µM
3 | CN(C)C(=O)Cn1cc2c(N)nc3cc(-n4cccn4)ccc3c2n1 [Example 553] | 2.11 µM | > 100 µM | > 100 µM
4 | CNC(=O)Cn1cc2c(N)nc3cc(-n4cccn4)ccc3c2n1 [Example 554] | 0.46 µM | > 100 µM | > 100 µM
5 | NC(=O)Cn1cc2c(N)nc3cc(-n4cccn4)ccc3c2n1 [Example 555] | 0.33 µM | > 100 µM | > 100 µM
6 | CNC(=O)CCn1cc2c(N)nc3cc(-n4cccn4)ccc3c2n1 [Example 556] | 1.82 µM | > 100 µM | > 100 µM
7 | N#CCCn1cc2c(N)nc3cc(-n4cccn4)ccc3c2n1 [Example 557] | 0.42 µM | > 100 µM | > 100 µM
8 | NC(=O)CCn1cc2c(N)nc3cc(-n4cccn4)ccc3c2n1 [Example 558] | 0.63 µM | > 100 µM | > 100 µM
9 | N#CCCCCn1cc2c(N)nc3cc(-n4cccn4)ccc3c2n1 [Example 559] | 0.6 µM | > 100 µM | > 100 µM
10 | CNC(=O)C(C)n1cc2c(N)nc3cc(-c4ccn[nH]4)ccc3c2n1 (stereo not drawn) [Example 560] | 0.36 µM | > 100 µM | > 100 µM
11 | CC(C(=O)N(C)C)n1cc2c(N)nc3cc(-c4ccn[nH]4)ccc3c2n1 (stereo not drawn) [Example 561] | 0.95 µM | > 100 µM | > 100 µM
12 | CC(C(=O)NC1CCC1)n1cc2c(N)nc3cc(-c4ccn[nH]4)ccc3c2n1 (stereo not drawn) [Example 562] | 0.7 µM | > 100 µM | > 100 µM
13 | CC(C(=O)NCc1ccccn1)n1cc2c(N)nc3cc(-c4ccn[nH]4)ccc3c2n1 (stereo not drawn) [Example 563] | 9.21 µM | > 100 µM | > 100 µM
14 | COC1CCN(C(=O)C(C)n2cc3c(N)nc4cc(-c5ccn[nH]5)ccc4c3n2)CC1 (stereo not drawn) [Example 564] | 15.5 µM | > 100 µM | > 100 µM
15 | CC(C(=O)NCc1cccnc1)n1cc2c(N)nc3cc(-c4ccn[nH]4)ccc3c2n1 (stereo not drawn) [Example 565] | 4.18 µM | > 100 µM | > 100 µM
16 | CC(C(=O)NCC1CCOCC1)n1cc2c(N)nc3cc(-c4ccn[nH]4)ccc3c2n1 (stereo not drawn) [Example 566] | 27.6 µM | > 100 µM | > 100 µM
17 | CC(C(=O)NCC(F)F)n1cc2c(N)nc3cc(-c4ccn[nH]4)ccc3c2n1 (stereo not drawn) [Example 567] | 0.97 µM | > 100 µM | > 100 µM
18 | CC(C(=O)NCCO)n1cc2c(N)nc3cc(-c4ccn[nH]4)ccc3c2n1 (stereo not drawn) [Example 568] | 2.1 µM | > 100 µM | > 100 µM
19 | CC(C)NC(=O)C(C)n1cc2c(N)nc3cc(-c4ccn[nH]4)ccc3c2n1 (stereo not drawn) [Example 569] | 0.94 µM | > 100 µM | > 100 µM

Further lines, results first:

Row | EC50 (THP-1 cells) | EC50 (TLR7) | EC50 (TLR8) | Compound
20 | 5.13 µM | > 100 µM | > 100 µM | CC(C(=O)N1CCOCC1)n1cc2c(N)nc3cc(-c4ccn[nH]4)ccc3c2n1 (stereo not drawn) [Example 570]
21 | 2.02 µM | > 100 µM | > 100 µM | CC(C(=O)NCc1ccccc1)n1cc2c(N)nc3cc(-c4ccn[nH]4)ccc3c2n1 (stereo not drawn) [Example 571]
22 | 4.41 µM | > 100 µM | > 100 µM | CC(C(=O)NCCCO)n1cc2c(N)nc3cc(-c4ccn[nH]4)ccc3c2n1 (stereo not drawn) [Example 572]
23 | 6.59 µM | > 100 µM | > 100 µM | CCN(CC)CCNC(=O)C(C)n1cc2c(N)nc3cc(-c4ccn[nH]4)ccc3c2n1 (stereo not drawn) [Example 573]
24 | 14 µM | > 100 µM | > 100 µM | CC(C(=O)NC(C)(C)CO)n1cc2c(N)nc3cc(-c4ccn[nH]4)ccc3c2n1 (stereo not drawn) [Example 574]
25 | 19.7 µM | > 100 µM | > 100 µM | CC(C(=O)N1CCS(=O)(=O)CC1)n1cc2c(N)nc3cc(-c4ccn[nH]4)ccc3c2n1 (stereo not drawn) [Example 575]
26 | 1.61 µM | > 100 µM | > 100 µM | CC(C(=O)N1CCC1)n1cc2c(N)nc3cc(-c4ccn[nH]4)ccc3c2n1 (stereo not drawn) [Example 576]
27 | 2.32 µM | > 100 µM | > 100 µM | CC(C(=O)N1CC(F)(F)C1)n1cc2c(N)nc3cc(-c4ccn[nH]4)ccc3c2n1 (stereo not drawn) [Example 577]
28 | 18.6 µM | > 100 µM | > 100 µM | CC(C(=O)N1CC(C)(O)C1)n1cc2c(N)nc3cc(-c4ccn[nH]4)ccc3c2n1 (stereo not drawn) [Example 578]
29 | 4.47 µM | > 100 µM | > 100 µM | CC(C(=O)N1CC(O)C1)n1cc2c(N)nc3cc(-c4ccn[nH]4)ccc3c2n1 (stereo not drawn) [Example 579]
30 | 20.1 µM | > 100 µM | > 100 µM | CC(C(=O)N1CC[C@H](C#N)C1)n1cc2c(N)nc3cc(-c4ccn[nH]4)ccc3c2n1 (stereo partly drawn) [Example 580]
31 | 3.17 µM | > 100 µM | > 100 µM | COCCNC(=O)C(C)n1cc2c(N)nc3cc(-c4ccn[nH]4)ccc3c2n1 (stereo not drawn) [Example 581]
32 | 3.3 µM | > 100 µM | > 100 µM | COCCN(C)C(=O)C(C)n1cc2c(N)nc3cc(-c4ccn[nH]4)ccc3c2n1 (stereo not drawn) [Example 582]
33 | 1.82 µM | > 100 µM | > 100 µM | CCN(CC)C(=O)C(C)n1cc2c(N)nc3cc(-c4ccn[nH]4)ccc3c2n1 (stereo not drawn) [Example 583]
34 | 5.03 µM | > 100 µM | > 100 µM | CC(C(=O)N(C)CCO)n1cc2c(N)nc3cc(-c4ccn[nH]4)ccc3c2n1 (stereo not drawn) [Example 584]
35 | 3.88 µM | > 100 µM | > 100 µM | COCCS(=O)(=O)NCCCn1cc2c(N)nc3cc(-c4ccn[nH]4)ccc3c2n1 [Example 585]
36 | 2.18 µM | > 100 µM | > 100 µM | CS(=O)(=O)NCCCn1cc2c(N)nc3cc(-c4ccn[nH]4)ccc3c2n1 [Example 586]
37 | 2.39 µM | > 100 µM | > 100 µM | Nc1nc2cc(-c3ccn[nH]3)ccc2c2nn(CCCNS(=O)(=O)c3ccccc3)cc12 [Example 587]
38 | 10.9 µM | > 100 µM | > 100 µM | CC(C)S(=O)(=O)NCCCn1cc2c(N)nc3cc(-c4ccn[nH]4)ccc3c2n1 [Example 588]
